# From patent publication US6140353A, “N-(4-carb-amimidophenyl)glycineamide derivatives” (Hoffmann-La Roche Inc., priority 1997, dated 2000)
# Where a name gives a salt, the structure may show the parent alone.
# Biological target: T1, factor VIIa/tissue factor complex (Homo sapiens, UniProt P08709)
# T1 construct: 9 nM of soluble factor VIIa
# Experiment: Inhibition of the amidolytic activity of the factor VIIa/tissue factor complex (chromogenic peptide substrate)
# Assay type: biochemical
# Settings: chromogenic substrate Chromozym-tPA (3.5 mM), pH 7.5, room temperature, 15 minutes incubation, 10 minutes kinetic reading
# Method: The measurements were carried out on microtiter plates at room temperature. To this end, per well of the plate, 100 μl of a solution of 26 nM of tissue factor, 9 nM of soluble factor VIIa and 8 mM of calcium chloride were added to 25 μl of a solution of the inhibitor in a buffer [pH 7.5, 100 mM, comprising 0.14 M NaCl, 0.1 M N(2-hydroxyethyl)piperazine-N'-(2-ethanesulphonic acid) (HEPES), 0.5 mg/l of fatty-acid-free BSA (bovine serum albumin) and 0.05% NaN3 ]. After an incubation time of 15 minutes, the reaction was started by addition of 50 μl of chromogenic substrate Chromozym-tPA (3.5 mM, MeSO2 -D-Phe-Gly-Arg-paranitroanilide), and the hydrolysis of the substrate was followed spectrophotometrically on a kinetic microtiter plate reader over 10 minutes. Using the plot of the inhibition curves, the Ki values were determined according to the method described in Biochem. J., 55:170-171 (1953).
# T1 sequence (P08709 213-466 limits assumed): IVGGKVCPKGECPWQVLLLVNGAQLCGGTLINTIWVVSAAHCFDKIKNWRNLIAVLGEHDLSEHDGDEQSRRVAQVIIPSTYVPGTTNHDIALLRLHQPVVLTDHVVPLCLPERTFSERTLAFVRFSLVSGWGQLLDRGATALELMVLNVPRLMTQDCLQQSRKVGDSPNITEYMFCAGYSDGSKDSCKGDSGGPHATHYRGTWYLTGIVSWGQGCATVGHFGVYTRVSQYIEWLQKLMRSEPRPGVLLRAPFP
# T1 sequence (P08709 61-212 partner limits assumed): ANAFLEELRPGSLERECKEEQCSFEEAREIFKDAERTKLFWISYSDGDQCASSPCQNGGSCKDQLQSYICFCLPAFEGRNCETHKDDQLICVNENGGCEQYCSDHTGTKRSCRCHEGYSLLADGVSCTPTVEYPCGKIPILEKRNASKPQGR
# T1 sequence (P13726 33-295 partner): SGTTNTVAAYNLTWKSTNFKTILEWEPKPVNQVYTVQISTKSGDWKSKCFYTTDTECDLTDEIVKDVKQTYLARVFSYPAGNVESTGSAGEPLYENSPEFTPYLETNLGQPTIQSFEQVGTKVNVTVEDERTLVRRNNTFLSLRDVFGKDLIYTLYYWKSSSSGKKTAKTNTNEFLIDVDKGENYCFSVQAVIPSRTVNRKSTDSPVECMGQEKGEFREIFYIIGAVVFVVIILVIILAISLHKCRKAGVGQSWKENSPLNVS
row,SMILES,Ki
1,"COc1ccc(C(Nc2ccc(C(=N)N)cc2)C(=O)NCc2ccccc2)cc1OC (racemic) [Example 2a, (R,S)-N-benzyl-2-(4-carbamimidoylphenylamino)-2-(3,4-dimethoxyphenyl)acetamide hydrochloride]",280 nM
2,"COc1cc(C(Nc2ccc(C(=N)N)cc2)C(=O)NCc2ccccc2)ccc1OCc1ccccc1 (racemic) [Example 1, (R,S)-N-benzyl-2-(4-benzyloxy-3-methoxyphenyl)-2-(4-carbamimidoylphenylamino)acetamide hydrochloride]",50 nM
3,"COc1cccc(COc2ccc(C(Nc3ccc(C(=N)N)cc3)C(=O)NCc3ccccc3)cc2OC)c1 (racemic) [Example 6, (R,S)-N-benzyl-2-(4-carbamimidoylphenylamino)-2-[3-methoxy-4-(3-methoxybenzyloxy)phenyl]) acetamide acetate]",220 nM
4,"COc1cc(C(Nc2ccc(C(=N)N)cc2)C(=O)NCc2ccccc2)c(NS(=O)(=O)c2ccccc2)cc1O (stereo not shown) [Example 10, 2-(2-phenylsulphonylamino-4-hydroxy-5-methoxyphenyl)-N-benzyl-2-(4-carbamimidoylphenylamino)acetamide acetate]",112 nM
5,"COc1cc(C(Nc2ccc(C(=N)N)cc2)C(=O)NCc2ccccc2)c(NS(=O)(=O)c2ccccc2)cc1OCc1ccccc1 (stereo not shown) [Example 8, 2-(2-phenylsulphonylamino-4-benzyloxy-5-methoxyphenyl)-N-benzyl-2-(4-carbamimidoylphenylamino)acetamide acetate]",150 nM

# Now from value to molecule:
row,Ki,SMILES
1,170 nM,"COc1cc(C(Nc2ccc(C(=N)N)cc2)C(=O)Nc2ccccc2)ccc1OCc1ccccc1 (racemic) [Example 7s, (R,S)-2-(4-benzyloxy-3-methoxyphenyl)-2-(4-carbamimidoylphenylamino)-N-phenylacetamide acetate]"
2,190 nM,"COc1cc(C(Nc2ccc(C(=N)N)cc2)C(=O)NCc2ccccc2)ccc1OCc1ccncc1 (stereo not shown) [Example 7a, N-benzyl-2-(4-carbamimidoylphenylamino)-2-[3-methoxy-4-(pyridin-4-ylmethoxy)phenyl]acetamide acetate]"
3,44 nM,"CCOc1cc(C(Nc2ccc(C(=N)N)cc2)C(=O)NCc2ccccc2)ccc1OCc1ccccc1 (racemic) [Example 5g, (R,S)-N-benzyl-2-(4-benzyloxy-3-ethoxyphenyl)-2-(4-carbamimidoylphenylamino)acetamide hydrochloride]"
4,210 nM,"COc1cc(C(Nc2ccc(C(=N)N)cc2)C(=O)NCc2ccccc2)ccc1OCCc1ccccc1 (racemic) [Example 7h, (R,S)-N-benzyl-2-(4-carbamimidoylphenylamino)-2-[3-methoxy-4-phenethyloxyphenyl)acetamide acetate]"
5,190 nM,"COc1cc(OC)cc(C(Nc2ccc(C(=N)N)cc2)C(=O)NCc2ccccc2)c1 (racemic) [Example 5b, (R,S)-N-benzyl-2-(4-carbamimidoylphenylamino)-2-(3,5-dimethoxyphenyl)acetamide hydrochloride]"
6,110 nM,"CCOc1ccc(C(Nc2ccc(C(=N)N)cc2)C(=O)NCc2ccccc2)cc1OCC (racemic) [Example 5d, (R,S)-N-benzyl-2-(4-carbamimidoylphenylamino)-2-(3,4-diethoxyphenyl)acetamide hydrochloride]"
7,280 nM,"COc1cc(C(Nc2ccc(C(=N)N)cc2)C(=O)NCc2ccccc2)cc(OC)c1OC (racemic) [Example 5a, (R,S)-N-benzyl-2-(4-carbamimidoylphenylamino)-2-(3,4,5-trimethoxyphenyl)acetamide hydrochloride]"
8,110 nM,"COc1cc(C(Nc2ccc(C(=N)N)cc2)C(=O)NCc2ccccc2)ccc1OCc1ccc2[nH]ccc2c1 (racemic) [Example 7e, (R,S)-N-benzyl-2-(4-carbamimidoylphenylamino)-2-[4-(1H-indol-5-ylmethoxy)-3-methoxyphenyl]acetamide acetate]"
9,160 nM,"COc1ccc(C(Nc2ccc(C(=N)N)cc2)C(=O)NC(c2ccccc2)c2ccccc2)cc1OC (racemic) [Example 5c, (R,S)-N-benzhydryl-2-(4-carbamimidoylphenylamino)-2-(3,4-dimethoxyphenyl)acetamide hydrochloride]"
10,260 nM,"COc1cc(C(Nc2ccc(C(=N)N)cc2)C(=O)NCc2ccccc2)ccc1OCc1ccc2c(c1)NCCC2 (racemic) [Example 7f, (R,S)-N-benzyl-2-(4-carbamimidoylphenylamino)-2-[3-methoxy-4-(1,2,3,4-tetrahydroquinolin-7-ylmethoxy)phenyl]acetamide acetate]"
11,170 nM,COc1cc(C(Nc2ccc(C(=N)N)cc2)C(=O)NCc2ccccc2)ccc1OCc1ccc2cnccc2c1 (racemic) [Example 7n]
